US7943603B2, “Medical uses of a selective estrogen receptor modulator in combination with sex steroid precursors” (Endorecherche, Inc., priority 1998, dated 2011)

Legend:
[1] = system: DMBA-induced mammary carcinoma; test: Development of DMBA-induced mammary carcinoma in the rat; assay type: in vivo; settings: 279 days after DMBA
Method: (§1) Female Sprague-Dawley rats [Crl:CD(SD)Br] were obtained at 44-46 days of age from Charles River Canada Inc. (St. Constant, Quebec) and housed 2 per cage in a light (12 h light/day; lights on at 07:15 h)-and temperature (22±2° C.)-controlled environment. Animals received Purina rodent chow and tap water ad libitum. The animal studies were conducted in a Canadian Council on Animal Care (CCAC)-approved facility in agreement with the CCAC Guide for Care and Use of Experimental Animals.
Mammary carcinomas were induced by a single intragastric administration of 20 mg of DMBA (Sigma Chemical Co., St. Louis, Mo.) in 1 ml of corn oil at 50-52 days of age. Two months later, tumor measurement was performed biweekly. The two largest perpendicular diameters of each tumor were recorded with calipers to estimate tumor size as described (Asselin et al., Endocrinology 101: 666-671, 1977). Tumor site, size and number were recorded.
(§2) The animals were randomly divided into groups each containing 20 rats with the exception of 40 animals in the control group. […] Treatment was initiated 3 days before the oral administration of DMBA. EM-800 was synthesized in the Medicinal Chemistry Division of our laboratory while DHEA was purchased from Steraloids Inc., Wilton, N.H.
Many of the control animals and some of EM-800- or DHEA-treated animals were sacrificed by cervical dislocation under isoflurane-induced anesthesia 6 months after DMBA administration because of the too large size of tumors. The values of tumor size and number of these rats at sacrifice, together with those measured at later time intervals from the surviving animals, were used for the later analysis of the incidence of tumors, average tumor number per tumor-bearing rat and average tumor size per tumor-bearing animal. […] Rats were sacrificed 279 days after DMBA administration.
Statistical significance was measured according to the multiple range test of Duncan-Kramer (Biometrics 12: 307-310, 1956). Analysis of the incidence of development of mammary tumors was performed using the Fisher's exact test (Conover, Practical nonparametric statistics, 2nd Edition 153-170, 1980). The data are presented as means±S.E.M.

female rat = test: Bone mineral density (DEXA) after 9-month treatment; assay type: in vivo; settings: DHEA 10 mg percutaneously, EM-800 75 μg orally, once daily, alone or in combination, 9 months
Method: as §1, §2
Rats were anesthetized with an i.p. injection of ketamine hydrochloride and diazepam at doses of 50 and 4 mg/kg B.W., respectively. The whole skeleton and the right femur were scanned using dual energy X-ray absorptiometry (DEXA; QDR 2000-7.10C, Hologic, Waltham, Mass.) equipped with a Regional High Resolution software. The scan field sizes were 28.110×17.805 cm and 5.0×1.902 cm, the resolutions were 0.1511×0.0761 cm and 0.0254×0.0127 cm, while the scan speeds were 0.3608 and 0.0956 mm/sec for total skeleton and femur, respectively. Both bone mineral content (BMC) and bone mineral density (BMD) of total skeleton, lumbar spine, and femur were measured on the scan images of total skeleton and femur.

rat = test: Serum triglyceride and cholesterol levels after 9-month treatment; assay type: in vivo; settings: DHEA 10 mg percutaneously, EM-800 75 μg orally, once daily, alone or in combination, 9 months
Description: as §2
Twenty-four-hour urinary samples were collected at the end of the experiment from the first 9 rats of each group following transfer in metabolic cages (Allentown Caging Equipment Co., Allentown, N.J.). Two urinary samples were collected and analyzed on different days for each animal in order to minimize the influence of daily variation. Therefore, each value shown represents the mean of the two measurements performed on two different days. 0.5 ml of toluene was added into the urine collecting tubes to prevent urine evaporation and bacterial growth and the urinary volume was recorded. Trunk blood was collected at sacrifice and was allowed to clot at 4° C. overnight before centrifugation at 3000 rpm for 30 min.
Fresh samples were used for the assay of urinary creatinine, calcium, and phosphorus as well as serum total alkaline phosphatase (tALP) activity, cholesterol and triglycerides. These biochemical parameters were measured automatically with a Monarch 2000 Chemistry System (Instrumentation Laboratory Co. Lexington, Mass.) under Good Laboratory Practice conditions. Urinary hydroxyproline was measured as described (Podenphant et al., Clinica Chimica Acta 142: 145-148, 1984).

[2] = system: ovariectomized (OVX) nude mice supplemented with estrone; test: Uterine, vaginal and body weight in OVX nude mice bearing ZR-75-1 xenografts; settings: OVX+E1 nude mice, 9.5 months
Method: A posteriori pairwise comparisons were performed using Fisher's test for least significant difference. Main effects and the interaction of treatments on body weight and organ weight were analyzed using a standard two-way ANOVA with interactions. All ANOVAs were performed using SAS program (SAS Institute, Cary, N.C., USA). Significance of differences were declared using a 2-tailed test with an overall level of 5%.

estrogen receptor = molecular target: T1, estrogen receptor (Homo sapiens, UniProt P03372); test: Testing of antiestrogens for function as SERM
T1 sequence (P03372 1-595): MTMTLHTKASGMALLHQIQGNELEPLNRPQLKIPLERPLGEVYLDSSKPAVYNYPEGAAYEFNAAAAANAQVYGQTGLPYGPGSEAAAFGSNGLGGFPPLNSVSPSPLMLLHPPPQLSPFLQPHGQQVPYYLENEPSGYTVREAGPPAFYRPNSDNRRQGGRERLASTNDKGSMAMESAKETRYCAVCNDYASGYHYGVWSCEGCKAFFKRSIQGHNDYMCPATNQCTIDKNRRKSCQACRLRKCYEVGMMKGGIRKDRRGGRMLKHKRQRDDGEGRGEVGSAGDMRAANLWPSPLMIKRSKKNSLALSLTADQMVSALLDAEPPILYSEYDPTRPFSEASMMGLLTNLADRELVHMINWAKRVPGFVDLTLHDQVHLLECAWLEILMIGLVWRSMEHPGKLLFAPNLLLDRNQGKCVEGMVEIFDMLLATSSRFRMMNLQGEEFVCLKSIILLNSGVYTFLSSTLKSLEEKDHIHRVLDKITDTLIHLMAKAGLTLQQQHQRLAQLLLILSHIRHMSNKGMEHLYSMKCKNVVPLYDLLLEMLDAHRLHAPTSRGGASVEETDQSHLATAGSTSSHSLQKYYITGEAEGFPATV

## CC1=C(c2ccc(OC(=O)C(C)(C)C)cc2)[C@H](c2ccc(OCCN3CCCCC3)cc2)Oc2cc(OC(=O)C(C)(C)C)ccc21 [EM-800, (+)-7-pivaloyloxy-3-(4′-pivaloyloxyphenyl)-4-methyl-2-(4″-(2′″-piperidinoethoxy)phenyl)-2H-benzopyran]
[1]; DHEA 10 mg percutaneously, EM-800 75 μg orally, once daily, control 95%
  incidence of DMBA-induced mammary carcinoma (animals with palpable tumors): 38%
[1]; end of experiment, DHEA 10 mg, EM-800 75 μg daily, control 4.7±0.5
  average tumor number per tumor-bearing animal: 1.4±0.3 tumors/animal
[1]; end of experiment, DHEA 10 mg, EM-800 75 μg daily, control 12.8±1.3
  average tumor area per tumor-bearing animal: 7.7±1.8 cm^2
Female rat
  BMD FEMUR: 0.3097 ± 0.0047 g/cm2
  BMD LUMBAR SPINE: 0.1888 ± 0.0045 g/cm2
  BMD TOTAL SKELETON: 0.1356 ± 0.0017 g/cm2
  increase in BMD of femur versus control: no significant change
  increase in BMD of lumbar spine versus control: no significant change
  increase in BMD of total skeleton versus control: no significant change
rat
  decrease of serum cholesterol levels: 45%
  decrease of serum triglyceride levels: 72%
[2]; EM-800 15 μg daily
  vaginal weight: 23 ± 1 mg
[2]; EM-800 15 μg orally daily
  uterine weight: 49 ± 3 mg
[2]; EM-800 50 μg daily
  vaginal weight: 15 ± 1 mg
[2]; EM-800 50 μg orally daily
  uterine weight: 36 ± 2 mg
[2]; EM-800 100 μg daily
  vaginal weight: 11 ± 1 mg
[2]; EM-800 100 μg orally daily
  uterine weight: 32 ± 1 mg
[2]
  effect on body weight adjusted for tumor weight: No significant effect
Estrogen receptor
  function as SERM: found to function as SERMs
